Experimental data reported in paper PMC9054915 (Cancer Chemotherapy and Pharmacology, 2022).
Where two headings read alike, the source gives them in different places.

Assays:
CYP3A4 [1] = molecular target: T1, CYP3A4 (Homo sapiens, UniProt P08684); conditions: ipatasertib 100 mg single oral dose with and without itraconazole 200 mg QD, cited from earlier work
P-glycoprotein (P-gp) = P-glycoprotein (P-gp) (Homo sapiens, UniProt P08183); assay: In vitro P-glycoprotein substrate assessment; type: in vitro ADME
Text: (§1) This is due to the difficulty in differentiating between the inhibition and induction from the clinical data and that the PBPK model parameters were optimized to represent a net inhibition effect.

[2] = Blood-to-plasma partition ratio and fraction unbound in plasma; type: in vitro ADME; conditions: mean at concentration from 0.1 to 40 µM, data on file, read-out: fu,plasma
[3] = Physicochemical parameters (LogP, pKa, compound type; in-house data)
Text: (§2) The physiochemical and ADME parameters used for the development of the initial PBPK model are summarized Table S1. […] The volume of distribution at steady state (Vss) was obtained from the clinical absolute bioavailability study (ClinicalTrials.gov Identifier: NCT02390492). A tissue to plasma partition coefficient (Kp) scalar was applied to match the predicted Vss (predicted with in Simcyp using Method 3, Rodgers et al. + ion membrane permeability) to the observed value. The IV clearance determined in the clinical absolute bioavailability study was used (ClinicalTrials.gov Identifier: NCT02390492). […] The CYP3A4 inhibition parameters for competitive inhibition and TDI determined using in vitro assays (Data on file) were incorporated into the model.

CYP3A4 [4] = molecular target: T1, CYP3A4; conditions: cited from earlier work
[5] = cited from earlier work
CYP3A4 [6] = molecular target: T1, CYP3A4; assay: Clinical study: ipatasertib 300 mg QD with palbociclib (NCT04060862); conditions: in vivo
[7] = Biliary excretion of unchanged ipatasertib; type: in vivo; conditions: rats and monkeys dosed with 10 mg/kg and 5 mg/kg
Text: as §1

[8] = male, human, in vivo, iv
[9] = cited from earlier work; for Observed AUC0-∞ / Observed AUC0-24: geometric mean (CV%); for Observed AUC0-24: Steady state
CYP3A4 [10] = assay: In vitro CYP3A4 induction; type: in vitro ADME
Text: as §1

CYP3A4 [11] = molecular target: T1, CYP3A4
Text: as §2
(§3) The age range of 37–76 and the proportion of females of 0.69 were used in the simulation.

clinical = conditions: human, in vivo, po, 200 mg
[12] = tested on: MDCK (Madin-Darby Canine Kidney); assay: MDCK permeability
Text: as §2

MDCK permeability = conditions: dog, MDCK
Text: as §2

[13] = Solubility of ipatasertib; type: physicochemical; conditions: across the pH range of 1.1–7.0
Text: as §2

[14] = Human mass balance and absolute bioavailability study (NCT02390492)
CYP3A4 [15] = molecular target: T1, CYP3A4; conditions: cited from earlier work; for AUC ratio Observation: midazolam AUC0–∞ with/without ipatasertib 600 mg QD; for AUC ratio Observation / Cmax ratio Observation: geometric mean ratio (90% CI); for Cmax ratio Observation: midazolam Cmax with/without ipatasertib 600 mg QD
CYP3A4 [16] = molecular target: T1, CYP3A4; assay: PBPK simulation: midazolam with ipatasertib 600 mg QD
Experimental: as §3
Therefore, sensitivity analyses of inhibitory parameters, where only one parameter (Ki or Kinact) varied at a time, were performed for all three models described above.

CYP3A4 [17] = molecular target: T1, CYP3A4; assay: clinical; conditions: female, in vivo, 125 mg
[18] = cited from earlier work; remark: listed apart in the source
CYP3A4 [19] = conditions: cited from earlier work
[20] = cited from earlier work; remark: listed apart in the source
[21] = palbociclib PBPK model input; cited from earlier work
Caco-2 = tested on: Caco-2; design: method as in earlier work; conditions: enzalutamide PBPK model input; cited from earlier work
[22] = enzalutamide 160 mg QD with ipatasertib, clinical observation, geometric mean (CV%)

T1 sequence (P08684 whole entry): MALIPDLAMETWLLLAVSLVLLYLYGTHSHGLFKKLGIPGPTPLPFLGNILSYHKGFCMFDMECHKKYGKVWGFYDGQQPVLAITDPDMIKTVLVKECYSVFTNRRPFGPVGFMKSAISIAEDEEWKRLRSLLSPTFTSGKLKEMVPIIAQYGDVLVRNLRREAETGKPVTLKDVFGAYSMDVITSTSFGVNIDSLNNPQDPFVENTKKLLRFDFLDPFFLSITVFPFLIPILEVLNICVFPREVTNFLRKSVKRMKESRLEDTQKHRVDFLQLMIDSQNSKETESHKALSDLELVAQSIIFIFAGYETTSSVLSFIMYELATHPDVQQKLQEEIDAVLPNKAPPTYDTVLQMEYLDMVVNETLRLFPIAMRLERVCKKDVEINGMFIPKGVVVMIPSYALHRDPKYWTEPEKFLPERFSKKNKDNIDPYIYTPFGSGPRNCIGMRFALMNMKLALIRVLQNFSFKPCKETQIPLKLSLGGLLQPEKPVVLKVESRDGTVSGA
Sequence of P-glycoprotein (P-gp) (P08183 whole entry): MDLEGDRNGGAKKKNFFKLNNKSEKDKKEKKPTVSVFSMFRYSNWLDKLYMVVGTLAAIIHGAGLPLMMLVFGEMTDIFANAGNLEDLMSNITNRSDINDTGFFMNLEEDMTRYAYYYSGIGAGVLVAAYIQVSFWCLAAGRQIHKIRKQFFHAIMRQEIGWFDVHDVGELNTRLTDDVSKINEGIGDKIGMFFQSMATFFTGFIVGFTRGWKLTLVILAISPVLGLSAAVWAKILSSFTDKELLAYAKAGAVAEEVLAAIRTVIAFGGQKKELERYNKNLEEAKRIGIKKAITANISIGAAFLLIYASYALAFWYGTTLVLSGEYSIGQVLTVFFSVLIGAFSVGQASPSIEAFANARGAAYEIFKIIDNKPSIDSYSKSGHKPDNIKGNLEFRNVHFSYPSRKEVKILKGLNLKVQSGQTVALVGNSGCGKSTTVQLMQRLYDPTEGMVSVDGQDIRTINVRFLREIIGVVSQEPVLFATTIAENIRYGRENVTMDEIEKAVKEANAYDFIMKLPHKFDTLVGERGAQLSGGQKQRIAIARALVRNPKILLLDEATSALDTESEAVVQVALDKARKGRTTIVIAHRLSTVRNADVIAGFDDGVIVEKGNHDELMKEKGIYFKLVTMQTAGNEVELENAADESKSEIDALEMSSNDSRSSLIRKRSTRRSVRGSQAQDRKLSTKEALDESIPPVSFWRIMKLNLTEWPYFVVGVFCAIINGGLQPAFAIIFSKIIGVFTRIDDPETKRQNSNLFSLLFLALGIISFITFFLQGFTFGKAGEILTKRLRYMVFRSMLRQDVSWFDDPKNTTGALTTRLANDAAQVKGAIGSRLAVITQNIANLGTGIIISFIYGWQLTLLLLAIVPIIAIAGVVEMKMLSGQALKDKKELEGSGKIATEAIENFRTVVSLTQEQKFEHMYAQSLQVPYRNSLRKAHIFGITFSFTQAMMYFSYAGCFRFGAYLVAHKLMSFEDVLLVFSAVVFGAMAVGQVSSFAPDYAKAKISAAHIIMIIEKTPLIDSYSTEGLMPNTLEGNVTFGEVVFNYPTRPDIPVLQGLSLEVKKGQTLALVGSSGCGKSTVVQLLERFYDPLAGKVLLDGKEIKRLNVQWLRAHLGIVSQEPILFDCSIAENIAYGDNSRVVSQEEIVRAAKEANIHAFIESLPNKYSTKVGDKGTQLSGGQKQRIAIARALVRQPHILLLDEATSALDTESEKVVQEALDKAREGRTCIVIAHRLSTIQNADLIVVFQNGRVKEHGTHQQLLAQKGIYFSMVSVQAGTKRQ

CC(C)NC[C@@H](C(=O)N1CCN(c2ncnc3c2[C@H](C)C[C@H]3O)CC1)c1ccc(Cl)cc1 [Ipatasertib]
AUC Observation (CYP3A4 [1]; ipatasertib AUC0–∞, geometric mean (CV%)): 327 (26.4%) ng* h/ml | Cmax Observation (CYP3A4 [1]; ipatasertib Cmax, geometric mean (CV%)): 44.9 (35.9%) ng/ml | Tmax Observation (CYP3A4 [1]; ipatasertib Tmax, median (range)): 1.07 (0.50–3.03) h | P-gp substrate status (P-glycoprotein (P-gp)): substrate of P-glycoprotein (P-gp) | fraction unbound [2]: 0.63 | Compound type [3]: Diprotic base | logP [3]: 3 | pKa ([3]; read-out: pKa1): 9 | pKa ([3]; read-out: pKa2): 4.9 | observed decrease in ipatasertib Cmax (CYP3A4 [4]; in the presence of enzalutamide, patients with prostate cancer): ~53% | AUC Observation (CYP3A4 [4]; ipatasertib AUC0–24 h, ipatasertib 400 mg QD with and without enzalutamide 160 mg QD, geometric mean (CV%)): 2170 (53.8%) ng* h/ml | Cmax Observation (CYP3A4 [4]; ipatasertib Cmax, ipatasertib 400 mg QD with and without enzalutamide 160 mg QD, patients with prostate cancer, geometric mean (CV%)): 284 (66.5%) ng/ml | Tmax Observation (CYP3A4 [4]; ipatasertib Tmax, ipatasertib 400 mg QD with and without enzalutamide 160 mg QD, median (range)): 1.85 (0.63–4.00) h | effect of food on exposures [5]: Food does not affect exposures | AUC (CYP3A4 [6]): 2510 ng·h/mL | Cmax (CYP3A4 [6]): 314 ng/mL | Tmax (CYP3A4 [6]): 1.5 h | unchanged drug found in bile [7]: 2.9–5.8% | CLiv [8]: 100 L/h | dose proportionality of exposure ([9]; 200 to 800 mg, single dose or multiple doses): approximately dose-proportional | Observed AUC0-∞ ([9]; Day 1, 25 mg oral (n=3)): 34.0 (107%) ng*hr/ml | Observed AUC0-∞ ([9]; Day 1, 50 mg oral (n=3)): 84.6 (50.1%) ng*hr/ml | Observed AUC0-∞ ([9]; Day 1, 100 mg oral (n=3)): 365 (21.5%) ng*hr/ml | Observed AUC0-∞ ([9]; Day 1, 200 mg oral (n=3)): 999 (21.2%) ng*hr/ml | Observed AUC0-∞ ([9]; Day 1, 400 mg oral (n=3)): 2230 (14.1%) ng*hr/ml | Observed AUC0-∞ ([9]; Day 1, 600 mg oral (n=7)): 3460 (36.4%) ng*hr/ml | Observed AUC0-∞ ([9]; Day 1, 800 mg oral (n=7)): 4100 (68.6%) ng*hr/ml | Observed AUC0-24 ([9]; 25 mg (n=3)): 88.3 (77.8%) ng*hr/ml | Observed AUC0-24 ([9]; 50 mg (n=3)): 171 (11%) ng*hr/ml | Observed AUC0-24 ([9]; 200 mg (n=3)): 1770 (14.6%) ng*hr/ml | Observed AUC0-24 ([9]; 400 mg (n=3)): 3210 (22.3%) ng*hr/ml | Observed AUC0-24 ([9]; 600 mg (n=7)): 4450 (43.8%) ng*hr/ml | Observed AUC0-24 ([9]; 800 mg (n=7)): 6670 (66.1%) ng*hr/ml | dose proportionality of exposure ([9]; low doses of 25–50 mg): more than dose-proportional increase in exposures | CYP3A4 induction in vitro (CYP3A4 [10]): weak CYP3A4 inducer in vitro | CYP3A4 substrate/inhibitor status (CYP3A4 [11]): a substrate and a competitive and time-dependent inhibitor (TDI) of CYP3A4 | Kapp (CYP3A4 time-dependent inhibition) (CYP3A4 [11]): 9.66 µM | CL renal (clinical): 322 mL/min | permeability (in words) [12]: moderate permeability | Papp (MDCK permeability): 3.55 ×10⁻⁶ cm/s | solubility [13]: > 10000 µg/mL | Vd ([14]; human, in vivo, intravenous, 0.08 mg): 39.1 L/kg | bioavailability ([14]; human, in vivo, oral, 200 mg): 34% | unchanged drug eliminated in urine ([14]; single 200 mg oral dose): ~8%

CC(C)NCC(O)COc1cccc2ccccc12 (stereo not drawn) [propranolol]
Papp (MDCK permeability): 20.9 ×10⁻⁶ cm/s

Cc1ncc2n1-c1ccc(Cl)cc1C(c1ccccc1F)=NC2 [Midazolam]
AUC ratio Observation (CYP3A4 [15]): 2.22 (1.57–3.12) | AUC ratio Observation (CYP3A4 [15]; listed as midazolam): 2.22 | AUC Observation (CYP3A4 [15]; midazolam AUC0–∞, midazolam 2 mg single oral dose with and without ipatasertib 600 mg QD, geometric mean (CV%)): 39.3 (58.4%) ng* h/ml | Cmax ratio Observation (CYP3A4 [15]): 1.29 (0.97–1.71) | Cmax ratio Observation (CYP3A4 [15]; listed as midazolam): 1.29 | Cmax Observation (CYP3A4 [15]; midazolam Cmax, midazolam 2 mg single oral dose with and without ipatasertib 600 mg QD, geometric mean (CV%)): 15.0 (51.6%) ng/ml | Tmax Observation (CYP3A4 [15]; midazolam Tmax, midazolam 2 mg single oral dose with and without ipatasertib 600 mg QD, median (range)): 0.50 (0.50–1.00) h | Papp (MDCK permeability): 18.8 ×10⁻⁶ cm/s | AUC P/O (CYP3A4 [16]; predicted/observed midazolam AUC0–∞, midazolam 2 mg with and without ipatasertib 600 mg QD): 0.59 | AUC ratio P/O (CYP3A4 [16]; predicted/observed midazolam AUC ratio, ipatasertib 600 mg QD): 1.00 | Cmax ratio P/O (CYP3A4 [16]; predicted/observed midazolam Cmax ratio, ipatasertib 600 mg QD): 1.33

CN/C(=N/CCSCc1nc[nH]c1C)NC#N [cimetidine]
Papp (MDCK permeability): 1 ×10⁻⁶ cm/s

COCCc1ccc(OCC(O)CNC(C)C)cc1 (stereo not drawn) [metoprolol]
Papp (MDCK permeability): 24.8 ×10⁻⁶ cm/s

CC(=O)c1c(C)c2cnc(Nc3ccc(N4CCNCC4)cn3)nc2n(C2CCCC2)c1=O [Palbociclib]
AUC (CYP3A4 [17]): 2560 ng·h/mL | Cmax (CYP3A4 [17]): 123 ng/mL | fu, plasma ([18]; palbociclib PBPK model input): 0.147 | Kapp (CYP3A4 time-dependent inhibition) (CYP3A4 [19]; palbociclib PBPK model input): 10 µM | CLR ([20]; palbociclib PBPK model input): 6.6 L/h | Fa ([20]; palbociclib PBPK model input): 0.85 | Ka ([20]; palbociclib PBPK model input): 0.12 h⁻¹ | Vss ([20]; palbociclib PBPK model input): 14.558 L/kg | logP [21]: 0.99

CNC(=O)c1ccc(N2C(=S)N(c3ccc(C#N)c(C(F)(F)F)c3)C(=O)C2(C)C)cc1F [Enzalutamide]
Observed AUCss (CYP3A4 [4]; [22]): 341 (25%) µg*hr/ml | Observed Cmax (CYP3A4 [4]; [22]): 17 (22%) µg/ml | fu, plasma ([18]; enzalutamide PBPK model input): 0.024 | Ind max (CYP3A4 induction) (CYP3A4 [19]; enzalutamide PBPK model input): 8 | EC50 (CYP3A4 [19]; enzalutamide PBPK model input, read-out: Ind C50 (CYP3A4 induction)): 2.5 µM | Ki (CYP3A4 [19]; enzalutamide PBPK model input, read-out: Ki (CYP3A4 competitive inhibition)): 42 µM | CLpo ([20]; enzalutamide, in vivo clearance): 0.54 L/h | Caco-2 permeability (Caco-2): 31 10^-6 cm/s
